# Assay results: patent publication US20090042725A1, “Fungicidal Mixtures Based on 3,5-Disubstituted N-Biphenyl-Pyrazolcarboxamides” (BASF Aktiengesellschaft, priority 2005, published 2009)
# Key:
# Botrytis cinerea = experiment: Activity against gray mold on bell pepper leaves caused by Botrytis cinerea, 1 day protective application; type: in vivo; details: bell pepper seedlings, sprayed 1 day before inoculation, 4 mg/l, rated after 5 days, efficacy in % of untreated control (100% infection), read-out: Observed activity (% infection)
# Experimental: (§1) The active compounds, separately or jointly, were prepared as a stock solution comprising 25 mg of active compound which was made up to 10 ml using a mixture of acetone and/or dimethyl sulfoxide and the emulsifier Uniperol® EL (wetting agent having an emulsifying and dispersing action based on ethoxylated alkylphenols) in a ratio by volume of solvent/emulsifier of 99:1. The mixture was then made up to 100 ml with water. This stock solution was diluted with the solvent/emulsifier/water mixture described to give the concentration of active compound stated below.
# (§2) Alternatively, the active compounds epoxiconazole and pyraclostrobin were used as a commercial formulation and diluted with water to the stated active compound concentrations.
# (§3) The visually determined percentages of infected leaf areas were converted into efficacies in % of the untreated control.
# (§4) The efficacy (E) is calculated as follows using Abbot's formula: […]
# (§5) α corresponds to the fungicidal infection of the treated plants in % and β corresponds to the fungicidal infection of the untreated (control) plants in %
# (§6) An efficacy of 0 means that the infection level of the treated plants corresponds to that of the untreated control plants; an efficacy of 100 means that the treated plants were not infected.
# (§7) The expected efficacies of active compound mixtures were determined using Colby's formula [R. S. Colby, “Calculating synergistic and antagonistic responses of herbicide combinations”, Weeds 15, 20-22 (1967)] and compared with the observed efficacies. […]
# Bell pepper seedlings of the cultivar “Neusiedler Ideal Elite” were, after 2-3 leaves were well developed, sprayed to runoff point with an aqueous suspension in the active compound concentration stated below. […] After 5 days, the extent of the fungal infection on the leaves could be determined visually in %.
# Puccinia recondite = experiment: Protective activity against Puccinia recondite on wheat (brown rust of wheat); type: in vivo; details: wheat seedlings cultivar Kanzler, sprayed 1 day before inoculation, efficacy in % of untreated control (90% infection), read-out: Observed activity (% infection); for inhibition at 1 µg/mL: 1 mg/l; for inhibition at 4 µg/mL: 4 mg/l
# Experimental: as §1, §2, §3, §4, §5, §6
# The expected efficacies of active compound mixtures were determined using Colby's formula [R. S. Colby, “Calculating synergistic and antagonistic responses of herbicide combinations”, Weeds 15, 20-22 (1967)] and compared with the observed efficacies.
# E=x+y−x·y/100 Colby's formula • E expected efficacy, expressed in % of the untreated control, when using the mixture of the active compounds A and B at the concentrations a and b; • x efficacy, expressed in % of the untreated control, when using the active compound A at the concentration a; • y efficacy, expressed in % of the untreated control, when using the active compound B at the concentration b;
# Leaves of potted wheat seedlings of the cultivar “Kanzler” were sprayed to runoff point with an aqueous suspension having the concentration of active compound stated below. The next day the treated plants were inoculated with a spore suspension of brown rust of wheat (Puccinia recondite). The plants were then placed in a chamber at high atmospheric humidity (90 to 95%) at 20 to 22° C. for 24 hours. During this time, the spores germinated and the germ tubes penetrated into the leaf tissue. The next day, the test plants were returned to the greenhouse and cultivated at temperatures between 20 and 22° C. and 65 to 70% relative atmospheric humidity for a further 7 days. The extent of the rust fungus development on the leaves was then determined visually.
# Alternaria solani = experiment: Activity against early blight on tomatoes caused by Alternaria solani; type: in vivo; details: tomato plants, sprayed 1 day before infection, rated after 5 days, efficacy in % of untreated control (90% infection), read-out: Observed activity (% infection); for inhibition at 63 µg/mL: 63 mg/l
# Experimental: as §1, §2, §3, §4, §5, §6, §7
# Leaves of potted tomato plants were sprayed to runoff point with an aqueous suspension having the concentration of active compounds stated below. […] After 5 days, the disease on the untreated, but infected control plants had developed to such an extent that the infection could be determined visually in %.
# Phakopsora pachyrhizi = experiment: Curative activity against soybean rust caused by Phakopsora pachyrhizi; type: in vivo; details: soybean seedlings cultivar Oxford, sprayed 2 days after inoculation, 4 mg/l, rated after 14 days, efficacy in % of untreated control (90% infection), read-out: Observed activity (% infection)
# Experimental: as §1, §2, §3, §4, §7
# Leaves of potted soybean seedlings of the cultivar “Oxford” were inoculated with a spore suspension of soybean rust (Phakopsora pachyrhizi). […] The extent of the rust fungus development on the leaves was then determined
# [1] = test system: Erysiphe [syn. Blumeria] graminis forma specialis. tritici; experiment: Activity against mildew of wheat caused by Erysiphe [syn. Blumeria] graminis forma specialis. tritici; type: in vivo; details: wheat seedlings, sprayed 24 hours before dusting with spores, 1 mg/l, rated after 7 days; efficacy in % of untreated control (90% infection); read-out: Observed activity (% infection)
# Experimental: as §1, with “below. […]” for “below.”
# as §3, §4, §7
# Leaves of potted wheat seedlings were sprayed to runoff point with an aqueous suspension having the active compound concentration stated below. […] After 7 days, the extent of the mildew development was determined visually in % infection of the entire leaf area.
compound,measurement,setting,value
"Fc1ccc([C@]2(Cn3cncn3)O[C@H]2c2ccccc2Cl)cc1 (racemic) [epoxiconazole, (2RS,3SR)-1-[3-(2-chlorophenyl)-2,3-epoxy-2-(4-fluorophenyl)propyl]-1H-1,2,4-triazole]",inhibition at 4 µg/mL,Botrytis cinerea,10%
"COC(=O)N(OC)c1ccccc1COc1ccn(-c2ccc(Cl)cc2)n1 [pyraclostrobin, methyl N-{2-[1-(4-chlorophenyl)-1H-pyrazol-3-yloxymethyl]phenyl}(N-methoxy)carbamate]",inhibition at 1 µg/mL,Puccinia recondite,0%
same,inhibition at 4 µg/mL,Botrytis cinerea,0%
"COc1ccc(C(=CC(=O)N2CCOCC2)c2ccc(Cl)cc2)cc1OC [dimethomorph, 3-(4-chlorophenyl)-3-(3,4-dimethoxyphenyl)-1-morpholin-4-yl-propenone]",inhibition at 4 µg/mL,Puccinia recondite,5%
same,inhibition at 63 µg/mL,Alternaria solani,0%
"CC1CCN(c2c(-c3c(F)cc(F)cc3F)c(Cl)nc3ncnn23)CC1 [5-chloro-7-(4-methylpiperidin-1-yl)-6-(2,4,6-trifluorophenyl)-[1,2,4]triazolo[1,5-a]pyrimidine]",inhibition at 4 µg/mL,Phakopsora pachyrhizi,28%
"COc1cc(C)c(C(=O)c2c(OC)ccc(Br)c2C)c(OC)c1OC [metrafenone, 3′-bromo-2,3,4,6′-tetramethoxy-2′,6-dimethylbenzophenone]",inhibition at 4 µg/mL,Puccinia recondite,0%
same,inhibition at 63 µg/mL,Alternaria solani,0%
"Cn1cc(C(=O)Nc2ccccc2-c2cc(Cl)cc(Cl)c2)c(C(F)(F)F)n1 [No. I.1, 1-methyl-3-trifluoromethyl-N-(ortho-(3,5-dichlorophenyl)phenyl)-pyrazole-4-carboxamide]",inhibition at 1 µg/mL,Puccinia recondite,52%
same,inhibition at 4 µg/mL,Botrytis cinerea,0%
same,melting point,,101 to 105 °C
"Cn1cc(C(=O)Nc2ccccc2-c2cc(Cl)cc(Cl)c2)c(C(F)F)n1 [No. I.4, N-(3′,5′-dichlorobiphenyl-2-yl)-1-methyl-3-difluoromethyl-1H-pyrazole-4-carboxamide]",inhibition at 1 µg/mL,Puccinia recondite,56%
same,inhibition at 1 µg/mL,[1],0%
same,inhibition at 16 µg/mL,Alternaria solani; 16 mg/l,44%
